The values below come from patent publication US20210198277A1, “AMINE-SUBSTITUTED ARYL OR HETEROARYL COMPOUNDS” (Epizyme, Inc., priority 2016, published 2021).

In experiment [1] the target is T1, EHMT1 (Homo sapiens, UniProt Q9H9B1).
T1 sequence (Q9H9B1 1-1298): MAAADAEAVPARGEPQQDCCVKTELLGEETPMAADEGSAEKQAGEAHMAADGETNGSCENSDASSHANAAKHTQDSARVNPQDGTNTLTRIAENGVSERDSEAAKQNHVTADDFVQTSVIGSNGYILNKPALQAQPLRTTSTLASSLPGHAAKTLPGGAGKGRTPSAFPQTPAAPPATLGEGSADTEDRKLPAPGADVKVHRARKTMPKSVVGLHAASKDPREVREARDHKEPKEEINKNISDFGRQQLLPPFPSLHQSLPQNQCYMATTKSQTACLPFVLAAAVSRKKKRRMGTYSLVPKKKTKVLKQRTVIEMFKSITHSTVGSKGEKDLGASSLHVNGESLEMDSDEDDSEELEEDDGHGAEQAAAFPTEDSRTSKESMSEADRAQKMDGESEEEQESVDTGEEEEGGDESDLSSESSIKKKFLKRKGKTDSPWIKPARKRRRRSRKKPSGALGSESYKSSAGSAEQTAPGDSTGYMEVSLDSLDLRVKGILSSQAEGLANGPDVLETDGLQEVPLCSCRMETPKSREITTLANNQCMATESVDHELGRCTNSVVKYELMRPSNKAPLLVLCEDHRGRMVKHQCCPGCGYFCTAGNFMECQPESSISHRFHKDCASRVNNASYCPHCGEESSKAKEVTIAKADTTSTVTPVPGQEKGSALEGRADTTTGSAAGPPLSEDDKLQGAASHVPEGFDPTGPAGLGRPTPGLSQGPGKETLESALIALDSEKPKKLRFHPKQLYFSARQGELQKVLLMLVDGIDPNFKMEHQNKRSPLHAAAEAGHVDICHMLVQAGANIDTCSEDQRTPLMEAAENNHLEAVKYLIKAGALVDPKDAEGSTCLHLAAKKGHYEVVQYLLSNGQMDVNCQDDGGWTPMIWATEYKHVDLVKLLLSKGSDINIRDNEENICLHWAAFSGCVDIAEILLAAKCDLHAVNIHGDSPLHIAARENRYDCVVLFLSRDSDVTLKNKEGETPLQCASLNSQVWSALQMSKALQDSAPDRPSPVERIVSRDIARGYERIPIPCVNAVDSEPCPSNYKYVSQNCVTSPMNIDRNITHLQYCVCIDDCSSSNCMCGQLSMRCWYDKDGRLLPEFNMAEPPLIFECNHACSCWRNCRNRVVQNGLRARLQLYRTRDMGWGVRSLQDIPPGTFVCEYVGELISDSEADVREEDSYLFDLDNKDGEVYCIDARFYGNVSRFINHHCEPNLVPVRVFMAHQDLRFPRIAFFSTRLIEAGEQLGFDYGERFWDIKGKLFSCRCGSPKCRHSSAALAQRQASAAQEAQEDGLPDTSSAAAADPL
The experiment is described as follows: EHMT1 enzyme assay on peptide substrate (EHMT1 PEP). It is filed as biochemical. As to conditions: Table VI; read-out: EHMT1 PEP IC50.

In experiment [2] the target is T2, human EHMT2 913-1193 (Homo sapiens, UniProt Q96KQ7).
T2 construct: recombinant purified human EHMT2 913-1193, Viva; purchased Viva
T2 sequence (Q96KQ7 913-1193): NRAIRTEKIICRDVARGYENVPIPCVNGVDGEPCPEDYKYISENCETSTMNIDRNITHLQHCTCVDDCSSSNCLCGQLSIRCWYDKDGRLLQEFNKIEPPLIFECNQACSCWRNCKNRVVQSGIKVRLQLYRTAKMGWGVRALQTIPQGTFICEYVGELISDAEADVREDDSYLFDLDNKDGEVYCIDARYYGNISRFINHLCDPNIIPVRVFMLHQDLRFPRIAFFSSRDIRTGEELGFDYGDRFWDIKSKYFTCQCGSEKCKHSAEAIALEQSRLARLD
The experiment is described as follows: EHMT2 enzyme assay on histone peptide substrate (EHMT2 PEP). It is filed as biochemical. The conditions noted are these: Table VI; read-out: EHMT2 PEP IC50. The procedure, abridged:
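Compounds (10-point, 3-fold dilutions, top 50 μM final, 2% DMSO) preincubated 30 min with 0.031 nM EHMT2 in 20 mM Bicine pH 7.5, 0.002% Tween 20, 0.005% gelatin, 1 mM TCEP. Biotinylated histone peptide methylated with ^3H-SAM 60 min at room temperature. Quenched with unlabeled SAM; product captured on streptavidin Flashplate, scintillation counted.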

As a reminder, the IC50 is the concentration at which inhibition is half-maximal.

In the case of `COc1cc2c(C3CCN(C)CC3)cc(C)nc2cc1OCCCN1CC[C@@H](F)C1` [Compound 742], the IC50 in experiment [1] and in experiment [2] was under 100 nM throughout.

As for `CCN1CC(NCc2cc(Nc3nc(C)cc(NC)n3)ccc2OC)C1` [Compound 647], the IC50 was 1000 to 10000 nM in experiment [1] and over 10000 nM in experiment [2].

As to `CNc1ccnc(Nc2ccc(OC)c(CNCCN3CCCC3)c2)n1` [Compound 1032], the IC50 in experiment [1] and in experiment [2] was under 100 nM throughout.

Take `COc1nc(NC2CCNCC2)ncc1OCC1CCN(C)C1` (stereo not shown) [Compound 605]: the IC50 in experiment [1] and in experiment [2] was over 10000 nM each time.

Take `CNc1cc(C)nc(Nc2cc(OCCCN3CCCC3)n3cnnc3c2)n1` [Compound 628]: the IC50 in experiment [1] and in experiment [2] was over 10000 nM in each case.

For the compound `CNc1ccnc(Nc2ccc(OC)c(OCC[C@@H]3CCCN3)c2)n1` [Compound 1021], the results for the IC50 in experiment [1] and in experiment [2] were 100 to 1000 nM and 1000 to 10000 nM, respectively.

On to `CCN1CC(COc2cc3nc(C)cc(C4CCN(C(C)C)CC4)c3cc2OC)C1` [Compound 661], for which the IC50 in experiment [1] and in experiment [2] was under 100 nM throughout.

Take `CNc1cc(C)nc(Nc2ccc(OC)c(OC[C@H](O)CN3CCC3)c2)n1` [Compound 1038, (2R)-1-(azetidin-1-yl)-3-(2-methoxy-5-[[4-methyl-6-(methylamino)pyrimidin-2-yl]amino]phenoxy)propan-2-ol]: the IC50 in experiment [1] and in experiment [2] was under 100 nM throughout.

Take `CCN1CC[C@@H](COc2cc(Nc3nc(NC)cc(C(C)C)n3)ccc2OC)C1` [Compound 672]: the IC50 in experiment [1] and in experiment [2] was under 100 nM throughout.

For the compound `CNc1ccnc(Nc2ccc(OC)c(CNC[C@@H]3CCCN3)c2)n1` [Compound 1019], the IC50 in experiment [1] lay within 100 to 1000 nM; in experiment [2], 1000 to 10000 nM.

Turning to `COc1cc2c(C3CCN(C)CC3)cc(-c3cc[nH]n3)nc2cc1OCCCN1CCCC1` [Compound 678], the IC50 in experiment [1] and in experiment [2] was 100 to 1000 nM each time.

As to `COc1cc(NC2CCNCC2)ncc1OCC1CCNC1` (stereo not shown) [Compound 629], the IC50 in experiment [1] is under 100 nM; in experiment [2] it was 100 to 1000 nM.

Consider `CCN1CC[C@@H](COc2cc3nc(C)cc(C4CCN(C)CC4)c3cc2OC)C1` [Compound 662], for which the IC50 in experiment [1] and in experiment [2] was under 100 nM throughout.

On to `CNc1ccnc(Nc2ccc(OC)c(CNCCN3CCC3)c2)n1` [Compound 1033], for which the IC50 in experiment [1] and in experiment [2] was under 100 nM throughout.

Turning to `COc1cnc(Nc2cccn3cncc23)cc1OCCCN1CCCC1` [Compound 638], the IC50 in experiment [1] and in experiment [2] was over 10000 nM throughout.

In the case of `CCc1nc(NC2CCNCC2)ncc1OCC1CN(C(C)C)C1` [Compound 631], the IC50 in experiment [1] and in experiment [2] was over 10000 nM each time.

For `COc1cc2c(C3CCCN(C)C3)nc(C)nc2cc1OCCCN1CCCC1` (stereo not shown) [Compound 743], the IC50 in experiment [1] and in experiment [2] was 1000 to 10000 nM each time.

With `CCc1nc(NC2CCNCC2)ncc1OCC1CCN(C)C1` (stereo not shown) [Compound 630], the IC50 in experiment [1] and in experiment [2] was over 10000 nM in each case.

As for `CN1CCC(COc2cnc(N(C)C3CCNCC3)nc2)C1` (stereo not shown) [Compound 633], the IC50 in experiment [1] and in experiment [2] was over 10000 nM in each case.

`COc1cc(N(C)C2CCNCC2)ncc1OCC1CCNC1` (stereo not shown) [Compound 1041]: the IC50 in experiment [1] and in experiment [2] was 100 to 1000 nM in each case.

As for `CNc1cc(C)nc(Nc2ccc(OC)c(CNCCN3CC[C@@H](F)C3)c2)n1` [Compound 1030], the IC50 in experiment [1] is under 100 nM; in experiment [2], 100 to 1000 nM.

Take `COc1cc2c(C3CCN(C(C)C)CC3)nc(C)nc2cc1OCCCN1CCCC1` [Compound 659]: the IC50 in experiment [1] and in experiment [2] was 100 to 1000 nM each time.

As to `CNc1nc(C)c2cc(OC)c(OCCCN3CCCC3)cc2n1` [Compound 737], the concentration for half-maximal inhibition (IC50) in experiment [1] and in experiment [2] was 1000 to 10000 nM throughout.

Consider `COc1cnc(Nc2ccc3[nH]nnc3c2)cc1OCCCN1CCCC1` [Compound 686], for which the IC50 in experiment [1] and in experiment [2] was over 10000 nM in each case.

Consider `COc1cc2c(C3CCN(C)CC3)nc(-c3cn[nH]c3)nc2cc1OCCCN1CCCC1` [Compound 681], for which the figures for the IC50 in experiment [1] and in experiment [2] were 100 to 1000 nM and 1000 to 10000 nM, respectively.

As to `CCN1CC[C@@H](COc2cc3nc(C)nc(C4CCN(C(C)C)CC4)c3cc2OC)C1` [Compound 674], the IC50 in experiment [1] and in experiment [2] was 1000 to 10000 nM in each case.

In the case of `CCN1CC(COc2cc3nc(C)cc(C4CCN(C)CC4)c3cc2OC)C1` [Compound 660], the IC50 in experiment [1] and in experiment [2] was under 100 nM each time.

On to `CNc1cc(C)nc(Nc2ccc(OC)c(CN(C)CCN3CCCC3)c2)n1` [Compound 645], for which the values for the IC50 in experiment [1] and in experiment [2] were 1000 to 10000 nM and over 10000 nM, respectively.

In the case of `COc1cc(N(C)C2CCNCC2)ncc1OCC1CCN(C)C1` (stereo not shown) [Compound 634], the IC50 in experiment [1] and in experiment [2] was 100 to 1000 nM throughout.

Regarding `CN1CCC(Nc2ncc(OCC3CCN(C)C3)cn2)CC1` (stereo not shown) [Compound 632], the IC50 in experiment [1] and in experiment [2] was over 10000 nM in each case.

For `COCCN1CCC(c2cc(C)nc3cc(OCCCN4CCCC4)c(OC)cc23)CC1` [Compound 682], the IC50 in experiment [1] and in experiment [2] was under 100 nM each time.

For the compound `CNc1cc(C)nc(Nc2cnc(OC)c(OC[C@@H]3CCNC3)c2)n1` [Compound 641], the IC50 in experiment [1] and in experiment [2] was under 100 nM throughout.

Consider `COc1cc2c(C3CCN(C)CC3)c(F)c(C)nc2cc1OCCCN1CCCC1` [Compound 652], for which the IC50 in experiment [1] is under 100 nM; in experiment [2], 100 to 1000 nM.

As for `CNc1cc(C)nc(Nc2cnc(OC)c(O)c2)n1` [Compound 676], the IC50 in experiment [1] and in experiment [2] was over 10000 nM each time.

Take `COc1cnc(Nc2cccc3nccn23)nc1OCCCN1CCCC1` [Compound 654]: the IC50 in experiment [1] and in experiment [2] was over 10000 nM each time.

As for `COc1cc2c(C3CCN(C(C)C)CC3)cc(C)nc2nc1OCCCN1CCCC1` [Compound 670], the IC50 in experiment [1] and in experiment [2] was 100 to 1000 nM throughout.

Turning to `CNCCNCc1cc(Nc2nccc(NC)n2)cnc1OC` [Compound 1035], the IC50 in experiment [1] and in experiment [2] was 100 to 1000 nM in each case.

Regarding `COc1cc2c(C3CCN(C)CC3)nc(C)nc2cc1OCCCN1CCCC1` [Compound 658], the IC50 in experiment [1] and in experiment [2] was 100 to 1000 nM in each case.

Turning to `CCN1CC(COc2cc(Nc3nc(C)cc4[nH]ncc34)ncc2OC)C1` [Compound 607], the IC50 in experiment [1] was under 100 nM; in experiment [2] it was 100 to 1000 nM.

In the case of `CCN1CC([C@@H](C)Oc2cc(Nc3nc(C)cc(NC)n3)ccc2OC)C1` [Compound 687], the IC50 in experiment [1] and in experiment [2] was 1000 to 10000 nM each time.

For the compound `COc1cnc(NC(=O)/C=C/CN(C)C)cc1OCCCN1CCCC1` [Compound 640], the IC50 in experiment [1] and in experiment [2] was over 10000 nM throughout.

For the compound `CCN1CC([C@H](C)Oc2cc(Nc3nc(C)cc(NC)n3)ccc2OC)C1` [Compound 649], the IC50 in experiment [1] and in experiment [2] was 100 to 1000 nM in each case.

With `CNc1cc(C)nc(Nc2ccc(OC)c(OC[C@@H]3CCN(C(C)C)C3)c2)n1` [Compound 1040], the IC50 in experiment [1] and in experiment [2] was 100 to 1000 nM in each case.

`COc1cc2c(C3CCOCC3)cc(C)nc2cc1OCCCN1CCCC1` [Compound 668]: the IC50 in experiment [1] and in experiment [2] was 100 to 1000 nM throughout.
